Values of other authors as cited in patent EP1862927B1, “Descriptors of three-dimensional objects, uses thereof and a method to generate the same” (SILICOS NV, priority 2006, dated 2007).
pIC50: −log10 of the molar value.

Target: T1, human soluble epoxide hydrolase (Homo sapiens, UniProt P34913)
T1 sequence (P34913 1-555): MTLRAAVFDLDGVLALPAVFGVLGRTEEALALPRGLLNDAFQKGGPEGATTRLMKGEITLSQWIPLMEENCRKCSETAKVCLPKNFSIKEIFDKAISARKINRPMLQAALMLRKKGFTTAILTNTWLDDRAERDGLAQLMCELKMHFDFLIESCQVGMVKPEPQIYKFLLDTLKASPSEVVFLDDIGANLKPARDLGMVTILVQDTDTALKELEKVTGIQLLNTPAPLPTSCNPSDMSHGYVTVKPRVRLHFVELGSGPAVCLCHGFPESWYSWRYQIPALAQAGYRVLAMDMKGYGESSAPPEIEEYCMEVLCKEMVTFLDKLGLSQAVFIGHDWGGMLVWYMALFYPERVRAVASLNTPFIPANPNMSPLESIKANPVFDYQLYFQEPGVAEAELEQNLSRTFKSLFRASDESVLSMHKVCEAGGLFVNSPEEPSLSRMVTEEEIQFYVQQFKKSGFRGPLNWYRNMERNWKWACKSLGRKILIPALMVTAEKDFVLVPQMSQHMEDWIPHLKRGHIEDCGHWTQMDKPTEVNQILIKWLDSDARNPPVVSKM
Conditions: inhibition constants of urea-like molecular species taken from McElroy et al., J. Med. Chem. 46, 1066-1080

- pIC50: 7.00
SMILES: O=C(NCC1CCCCC1)NC1C2CC3CC(C2)CC1C3 (stereo not shown) [molecular species 136]
